# Calls of active or inactive are those of the source. No cut-off for these calls is given here.
# Target: T1, Neutrophil elastase (Homo sapiens) (UniProt P08246)
# T1 sequence (whole entry): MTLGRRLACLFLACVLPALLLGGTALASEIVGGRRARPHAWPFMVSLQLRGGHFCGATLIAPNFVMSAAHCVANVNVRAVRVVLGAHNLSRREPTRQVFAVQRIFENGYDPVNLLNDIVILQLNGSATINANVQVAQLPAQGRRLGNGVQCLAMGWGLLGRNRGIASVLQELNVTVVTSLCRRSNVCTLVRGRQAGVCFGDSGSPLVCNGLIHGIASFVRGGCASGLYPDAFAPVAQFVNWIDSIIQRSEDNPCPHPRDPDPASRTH
# Assay: Inhibition of NE in cystic fibrosis patient sputum supernatant at 5 to 10 nM using ABZ-APEEIMRRQ-EDDnp as substrate after 20 mins by spectrophotometric method
compound,measurement,value
CCCC(NC(=O)[C@H](CC(=O)O)NC(=O)[C@H](Cc1ccc(O)cc1)NC(=O)[C@@H](NC(=O)CCCC[C@@H]1SC[C@@H]2NC(=O)N[C@@H]21)C(C)C)P(=O)(Oc1ccc(Cl)cc1)Oc1ccc(Cl)cc1 (stereo partly specified),inhibition,inactive

# — ChEMBL document CHEMBL4043286, “Exploiting the S4-S5 Specificity of Human Neutrophil Proteinase 3 to Improve the Potency of Peptidyl Di(chlorophenyl)-phosphonate Ester Inhibitors: A Kinetic and Molecular Modeling Analysis” (J Med Chem, 2018)
